Experimental data taken from ChEMBL document CHEMBL4229423 (Bioorg Med Chem, 2018).

Columns and labels:
[1] = test system: Platelet; assay: Antiplatelet activity in rabbit platelet rich plasma assessed as inhibition of ADP-induced platelet aggregation at 0.1 mM preincubated for 5 mins followed by ADP addition measured up to 5 mins; type: functional; conditions: Oryctolagus cuniculus
[2] = test system: Platelet; assay: Antiplatelet activity in rabbit platelet rich plasma assessed as inhibition of ADP-induced platelet aggregation at 0.1 mM preincubated for 5 mins followed by ADP addition measured up to 5 mins in presence of NO scavenger carboxy-PTIO; type: functional; conditions: Oryctolagus cuniculus
[3] = test system: Mus musculus; assay: Antihyperglycemic activity in fasting ICR mouse assessed as decrease in plasma glucose AUC (0 to 120 mins) at 20 mg/kg, po administered 30 mins prior to glucose challenge measured after 120 mins by OGTT relative to control; type: functional; set-up: scale not given: the % may be the effect or the level left
[4] = test system: Mus musculus; assay: Antidiabetic activity in ICR mouse assessed as increase in urinary glucose excretion by measuring urine glucose levels at 20 mg/kg, po administered 30 mins prior to glucose challenge measured after 15 mins; type: functional
[5] = test system: Mus musculus; assay: Antidiabetic activity in ICR mouse assessed as increase in urinary glucose excretion by measuring urine glucose levels at 20 mg/kg, po administered 30 mins prior to glucose challenge measured after 30 mins; type: functional
[6] = test system: Mus musculus; assay: Antidiabetic activity in ICR mouse assessed as increase in urinary glucose excretion by measuring urine glucose levels at 20 mg/kg, po administered 30 mins prior to glucose challenge measured after 60 mins; type: functional
[7] = test system: Mus musculus; assay: Antidiabetic activity in ICR mouse assessed as increase in urinary glucose excretion by measuring urine glucose levels at 20 mg/kg, po administered 30 mins prior to glucose challenge measured after 120 mins; type: functional
[8] = biological target: T1, Sodium/glucose cotransporter 2 (Homo sapiens, UniProt P31639); assay: Inhibition of SGLT2 (unknown origin)
T1 sequence (P31639 whole entry): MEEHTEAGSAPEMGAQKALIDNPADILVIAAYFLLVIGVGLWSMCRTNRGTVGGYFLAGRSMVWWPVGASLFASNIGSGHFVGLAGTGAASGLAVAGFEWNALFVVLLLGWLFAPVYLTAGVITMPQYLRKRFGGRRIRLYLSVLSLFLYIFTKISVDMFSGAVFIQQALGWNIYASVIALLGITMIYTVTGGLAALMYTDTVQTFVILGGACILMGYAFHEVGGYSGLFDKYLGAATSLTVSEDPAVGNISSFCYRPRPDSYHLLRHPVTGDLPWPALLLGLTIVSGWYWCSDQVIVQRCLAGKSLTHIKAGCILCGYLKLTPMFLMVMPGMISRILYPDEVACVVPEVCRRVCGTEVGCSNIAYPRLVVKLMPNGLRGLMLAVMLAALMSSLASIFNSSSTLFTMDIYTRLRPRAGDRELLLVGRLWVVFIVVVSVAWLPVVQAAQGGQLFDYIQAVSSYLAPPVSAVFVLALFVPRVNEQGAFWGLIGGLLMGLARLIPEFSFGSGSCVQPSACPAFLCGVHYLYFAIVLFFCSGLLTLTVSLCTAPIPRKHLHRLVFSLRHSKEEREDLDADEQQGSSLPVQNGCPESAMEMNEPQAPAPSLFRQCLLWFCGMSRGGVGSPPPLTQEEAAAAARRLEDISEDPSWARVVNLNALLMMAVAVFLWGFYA

Structure (SMILES) | inhibition at 100 µM [1] | IC50 [8] | also measured
O=[N+]([O-])OCCOc1ccc(Cc2cc([C@@H]3O[C@H](CO)[C@@H](O)[C@H](O)[C@H]3O)ccc2Cl)cc1 | 11.6% |  | 
O=[N+]([O-])OCCCOc1ccc(Cc2cc([C@@H]3O[C@H](CO)[C@@H](O)[C@H](O)[C@H]3O)ccc2Cl)cc1 | 14.4% |  | inhibition at 100 µM [2]: 3.64%; Activity [3]: 26.3%; Activity [4]: 500 mg/dL; Activity [5]: 2000 mg/dL; Activity [6]: 1000 mg/dL; Activity [7]: 500 mg/dL
O=[N+]([O-])OCCCCOc1ccc(Cc2cc([C@@H]3O[C@H](CO)[C@@H](O)[C@H](O)[C@H]3O)ccc2Cl)cc1 | 14.1% |  | 
OC[C@H]1O[C@@H](c2ccc(F)c(Cc3cc4ccccc4s3)c2)[C@H](O)[C@@H](O)[C@@H]1O [IPRAGLIFLOZIN] |  | 8.4 nM | 
CCOc1ccc(Cc2cc([C@@H]3S[C@H](CO)[C@@H](O)[C@H](O)[C@H]3O)c(OC)cc2C)cc1 [LUSEOGLIFLOZIN] |  | 2.3 nM | 
CCc1ccc(Cc2ccc3c(c2)[C@]2(OC3)O[C@H](CO)[C@@H](O)[C@H](O)[C@H]2O)cc1 [TOFOGLIFLOZIN ANHYDROUS] |  | 4 nM | 
